Assay results reported in ChEMBL document CHEMBL1121833, “Structure--sweetness relationship of L-aspartyl dipeptide analogues. A receptor site topology” (J Med Chem, 1981).
Peptide text beside a SMILES is read from it.

test: Sweet potency as logarithm of sweet potency (log SP) relative to sucrose; No sweet; type: functional

SMILES | Log SP
CCCCC(=O)OC[C@H](CC)NC(=O)[C@H](N)CC(=O)O | Not sweet
C[C@@H](COC(=O)C1CCCC(C)(C)C1)NC(=O)[C@H](N)CC(=O)O (some centres not stated) | Not sweet
CC[C@H](C)[C@H](NC(=O)[C@@H](N)CC(=O)O)C(=O)OC (H-Asp-Ile-OMe) | Not sweet
C[C@@H](COC(=O)c1ccccc1)NC(=O)[C@H](N)CC(=O)O | Not sweet
CC(=O)OC[C@H](Cc1ccccc1)NC(=O)[C@H](N)CC(=O)O | Not sweet
CCC(C)[C@@H](COC(C)=O)NC(=O)[C@H](N)CC(=O)O (some centres not stated) | Not sweet
CCOC(=O)C[C@H](Cc1ccccc1)NC(=O)[C@H](N)CC(=O)O | Not sweet
COC(=O)C(CNC(=O)[C@H](N)CC(=O)O)C(=O)OC1CCCCC1 (some centres not stated) | Not sweet
CC1CCCCC1OC(=O)CCNC(=O)[C@H](N)CC(=O)O (some centres not stated) | Not sweet
COC(=O)[C@@H](CC(=O)OC1CCCCC1)NC(=O)[C@H](N)CC(=O)O | Not sweet
CC(C)C[C@H](NC(=O)[C@H](N)CC(=O)O)C(=O)OC(C)C | Not sweet
CC(=O)OC[C@H](CC(C)C)NC(=O)[C@H](N)CC(=O)O | Not sweet
COC(=O)C(CNC(=O)[C@H](N)CC(=O)O)Cc1ccccc1 (some centres not stated) | Not sweet
CCC[C@@H](COC(=O)CC)NC(=O)[C@H](N)CC(=O)O | Not sweet
C[C@@H](COC(=O)C1CCCCC1)NC(=O)[C@H](N)CC(=O)O | Not sweet
COC(=O)[C@@H](CC(C)C)NC(=O)[C@H](N)CC(=O)O | Not sweet
COC(=O)C(CNC(=O)[C@H](N)CC(=O)O)C(=O)OC | Not sweet
COC(=O)C(NC(=O)[C@@H](N)CC(=O)O)C(=O)OC1CC(C)CCC1C(C)C (some centres not stated) | Not sweet
CC[C@@H](COC(=O)C1CCCCC1)NC(=O)[C@H](N)CC(=O)O | Not sweet
COC(=O)C(CNC(=O)[C@H](N)CC(=O)O)C(=O)OC1CCCC1 (some centres not stated) | Not sweet
CC[C@@H](CC(=O)OC(C)C)NC(=O)[C@H](N)CC(=O)O | Not sweet
COC(=O)[C@@H](COC(=O)c1ccccc1)NC(=O)[C@H](N)CC(=O)O | Not sweet
CCCCOC(=O)CCNC(=O)[C@H](N)CC(=O)O | Not sweet
CC[C@@H](CC(=O)OC1CCCCC1)NC(=O)[C@H](N)CC(=O)O | Not sweet

test: Sweet potency as logarithm of sweet potency (log SP) relative to sucrose; Bitter; type: functional

SMILES | Log SP
C[C@@H](Cc1ccc(NS(C)(=O)=O)cc1)NC(=O)[C@H](N)CC(=O)O | Bitter
C[C@@H](Cc1ccc2c(c1)OCO2)NC(=O)[C@H](N)CC(=O)O | Bitter
CC(CNC(=O)[C@H](N)CC(=O)O)c1ccccc1 (some centres not stated) | Bitter
CCC[C@H](CC)NC(=O)[C@H](N)CC(=O)O | Bitter
C[C@H](Cc1ccccc1)N(C)C(=O)[C@H](N)CC(=O)O | Bitter
CC(C)C[C@H](C)NC(=O)[C@H](N)CC(=O)O | Bitter
C[C@@H](CC1CCCCC1)N(C)C(=O)[C@H](N)CC(=O)O | Bitter
C[C@@H](Cc1ccccc1)N(C)C(=O)[C@H](N)CC(=O)O | Bitter
C[C@H](CC1CCCCC1)N(C)C(=O)[C@H](N)CC(=O)O | Bitter
COC(=O)[C@@H](CCCCN)NC(=O)[C@H](N)CC(=O)O | Bitter
C[C@@H](Cc1cc2ccccc2[nH]1)NC(=O)[C@H](N)CC(=O)O | Bitter

test: Sweet potency as logarithm of sweet potency (log SP) relative to sucrose; type: functional

SMILES | Log SP
CCOC(=O)[C@H](NC(=O)[C@H](N)CC(=O)O)C(=O)OC(C)(C)C | 2.32
CCC(C)C(=O)OC[C@H](C)NC(=O)[C@H](N)CC(=O)O (some centres not stated) | 2.08
C[C@@H](CCc1ccccc1)NC(=O)[C@H](N)CC(=O)O | 0.89
CCCOC(=O)CNC(=O)[C@H](N)CC(=O)O | 0.98
CCCC(C)OC(=O)CCNC(=O)[C@H](N)CC(=O)O (some centres not stated) | 0.68
CCOC(=O)C(NC(=O)[C@@H](N)CC(=O)O)C(=O)OC1CCCCC1C (some centres not stated) | 3.09
CC(C)C(=O)OCCNC(=O)[C@H](N)CC(=O)O | 1.16
CCOC(=O)C(NC(=O)[C@H](N)CC(=O)O)C(=O)OCC | 1.35
COC(=O)[C@H](NC(=O)[C@H](N)CC(=O)O)C(=O)OC1CCCC1 | 2.92
C[C@@H](CC(=O)OC1CCCCC1)NC(=O)[C@H](N)CC(=O)O | 0.64
CC(C)CC(=O)OCCNC(=O)[C@H](N)CC(=O)O | 1.36
N[C@H](CC(=O)O)C(=O)N[C@@H](CO)COC(=O)C1CCC1 | 1.71
N[C@H](CC(=O)O)C(=O)N[C@@H](CO)C(=O)OC1CCCCC1 | 1.72
CC(=O)OC[C@H](CO)NC(=O)[C@H](N)CC(=O)O | 1.23
COC(=O)C[C@H](C)NC(=O)[C@H](N)CC(=O)O | 0.43
COC(=O)[C@H](NC(=O)[C@H](N)CC(=O)O)C(=O)OC(C)(C)C | 2.03
CCOC(=O)C(NC(=O)[C@@H](N)CC(=O)O)C(=O)OCC1C2(C)CCC(C2)C1(C)C (some centres not stated) | 4.05
CCOC(=O)[C@H](NC(=O)[C@H](N)CC(=O)O)C(=O)OC1CCCC1 | 2.44
CC(C)OC(=O)[C@H](CO)NC(=O)[C@H](N)CC(=O)O | 1.96
CC[C@@H](COC(=O)C1CC1)NC(=O)[C@H](N)CC(=O)O | 1.38
COC(=O)C(NC(=O)[C@@H](N)CC(=O)O)C(=O)OC1CCCCC1C (stereo in doubt; 202) | 3.92
CC(C)[C@@H](COC(=O)C1CC1)NC(=O)[C@H](N)CC(=O)O | 1.22
COC(=O)C(NC(=O)[C@@H](N)CC(=O)O)C(=O)OCC1C2(C)CCC(C2)C1(C)C (some centres not stated) | 4.79
COC(=O)[C@@H](COC(=O)C(C)C)NC(=O)[C@H](N)CC(=O)O | 1.65
COC(=O)[C@@H](CSC(C)C)NC(=O)[C@H](N)CC(=O)O | 2.23
CC(C)CC[C@H](C)NC(=O)[C@H](N)CC(=O)O | 1.85

SMILES | Log SP
CC(C)C(=O)OC[C@@H](NC(=O)[C@H](N)CC(=O)O)C(C)C | 1.1
N[C@H](CC(=O)O)C(=O)NCC(=O)OC1CCCCC1 | 1.02
CCCOC(=O)[C@H](CO)NC(=O)[C@H](N)CC(=O)O | 2.39
CC(C)OC(=O)C(C)CNC(=O)[C@H](N)CC(=O)O (some centres not stated) | 0.18
C[C@@H](COC(=O)C1CCCC1)NC(=O)[C@H](N)CC(=O)O | 1.7
CCCOC(=O)[C@H](NC(=O)[C@@H](N)CC(=O)O)[C@@H](C)O | 2.08
C[C@@H](CC1CCCCC1)NC(=O)[C@H](N)CC(=O)O | 1.57
C[C@@H](COC(=O)C1CCC1)NC(=O)[C@H](N)CC(=O)O | 2.24
COC(=O)C(NC(=O)[C@@H](N)CC(=O)O)C(=O)OC1CCCCC1C (stereo in doubt; 203) | 4.11
CCCC(=O)OCCNC(=O)[C@H](N)CC(=O)O | 0.56
CCCOC(=O)[C@H](CCC)NC(=O)[C@H](N)CC(=O)O | 1.56
COC(=O)CC[C@@H](NC(=O)[C@H](N)CC(=O)O)C(=O)OC | 2
CC(=O)OCCNC(=O)[C@H](N)CC(=O)O | 0.28
C=C(C)C(=O)OC[C@H](C)NC(=O)[C@H](N)CC(=O)O | 1.99
N[C@H](CC(=O)O)C(=O)NCCOC(=O)C1CCC1 | 0.99
COC(=O)[C@@H](CCCNC(C)=O)NC(=O)[C@H](N)CC(=O)O | 0.25
CC[C@@H](COC(=O)C(C)C)NC(=O)[C@H](N)CC(=O)O | 1.38
CCCCOC(=O)[C@H](NC(=O)[C@@H](N)CC(=O)O)[C@H](C)O | 1.23
CC[C@@H](COC(=O)C1CCC1)NC(=O)[C@H](N)CC(=O)O | 1.4
CC[C@H](NC(=O)[C@H](N)CC(=O)O)C(=O)OC(C)C | 2.15
C[C@@H](COC(=O)C1CC1)NC(=O)[C@H](N)CC(=O)O | 2.18
CC(C)CCC(C)NC(=O)[C@H](N)CC(=O)O (some centres not stated) | 1.54
CCCCOC(=O)[C@H](NC(=O)[C@@H](N)CC(=O)O)[C@@H](C)O | 1.41
COC(=O)C(C)C[C@H](NC(=O)[C@@H](N)CC(=O)O)C(=O)OC (some centres not stated) | 1.15
CC(C)OC(=O)[C@H](NC(=O)[C@@H](N)CC(=O)O)[C@@H](C)O | 1.93
C[C@@H](O)[C@@H](NC(=O)[C@@H](N)CC(=O)O)C(=O)OC1CCCCC1 | 1.44

test: Sweet potency as logarithm of sweet potency (log SP) relative to sucrose; Sweet; type: functional

SMILES | Log SP
N[C@H](CC(=O)O)C(=O)NCCc1ccc(O)cc1 | Sweet
N[C@H](CC(=O)O)C(=O)NCCOc1ccccc1 | Sweet
CCOC(=O)[C@H](NC(=O)[C@H](N)CC(=O)O)C(=O)OC(C)(C)C | Sweet
C[C@H](NC(=O)[C@H](N)CC(=O)O)C(O)c1ccccc1 (some centres not stated) | Sweet
N[C@H](CC(=O)O)C(=O)N[C@@H](CO)Cc1ccccc1 | Sweet
C[C@@H](Cc1ccc(O)cc1)NC(=O)[C@H](N)CC(=O)O | Sweet
CCC(C)C[C@H](C)NC(=O)[C@H](N)CC(=O)O (some centres not stated) | Sweet
N[C@H](CC(=O)O)C(=O)N[C@@H](CO)Cc1ccc(O)cc1 | Sweet
CCCC[C@H](CC)NC(=O)[C@H](N)CC(=O)O | Sweet
N[C@H](CC(=O)O)C(=O)NCCc1ccco1 | Sweet
CCCCCCNC(=O)[C@H](N)CC(=O)O | Sweet
CCCCCCCNC(=O)[C@H](N)CC(=O)O | Sweet

test: Sweet potency as logarithm of sweet potency (log SP) relative to sucrose; Tasteless; type: functional

SMILES | Log SP
CC(C)CCCNC(=O)[C@H](N)CC(=O)O | Tasteless
CCC[C@H](C)NC(=O)[C@H](N)CC(=O)O | Tasteless
N[C@H](CC(=O)O)C(=O)NCCc1ccccc1 | Tasteless
